In patent US20150265669A1, “METHODS AND COMPOSITIONS FOR INHIBITING CANCER CELL GROWTH” (priority 2014, published 2015):
≈ marks a conversion by molar mass, not a printed value.

What was measured:
[1] = test system: Spleen tissue of leukaemic BALB/c mice; experiment: TUNEL assay of spleen tissue; format: in vivo; conditions: Morinda at low and high doses
A549 cells = experiment: MTT cytotoxicity assay on A549 cells; format: cell-based; conditions: Homo sapiens, after 72 hours, read-out: IC50 concentrations
Protocol: The cytoxicity properties of the extract were determined by using MTT assay. MTT dye is a water-soluble yellow dye that is decreased in viable cells to MTT-formazan (3-[4,5-dimethylthiazol-2-yl]-3,5-diphenylformazan) that is an insoluble purple colored product, by the succinate dehydrogenase mitochondrial enzyme. The cells were seeded in 96-well Microplates at a density of 2×10^5 cells/ml. After 24 hours incubation, the cells were treated with various concentrations of Morinda leaf, or Clinacanthus spp. Leaves and root extract ([…]) for 24, 48 and 72 h. After 72 hours of incubation, 20 μL of MTT solution (5 mg/ml in PBS) was added in each well and the plates incubated for 4 hours. Then, after removing the media the formazan crystals were dissolved with 100 μL DMSO. Finally the absorbance was determined at 570 and 630 nm in a microplate reader (ECAN, Sunrise™, Männedorf, Switzerland). Cell viability was calculated as the percentage of absorbent compared to control. The 50% inhibitory concentration (IC50) value, defined as the amount of Morinda citrifolia leaf, or Clinacanthus spp. Leaves and root extract that inhibits 50% of cell growth, was calculated from the concentration-response curves. All experiments were carried out in triplicate. Three independent experiments performed in triplicate were used for these calculations. […]

A549 cells (lung cancer) [2] = experiment: Morphological changes under normal phase contrast inverted microscope; format: cell-based, human; conditions: 400x
Protocol: Wehi-3B (blood cancer) or A549 (lung cancer) cells at concentration of 1×10^6 cells/ml were cultured in RPMI 1640 (ATCC, USA) medium supplemented with 10% fetal bovin serum and were seeded into […] culture flask. […] The morphological changes of the cells were observed under normal inverted microscope. Untreated cells were used as negative control. Some morphological appearances such as plasma membrane blebbing, rounding up the cells, cell detachment, cell shrinkage and formation of vacuole in the cell were observed.
Similarly Human lung fibroblast (MRC5), human lung adenocarcinoma (A549) cell lines, Essential Modified Eagle's Medium (EMEM) and Kaighn's Modification of Ham's F-12 (F-12K) medium were obtained from American Type Culture Collection (ATCC). MRC5 and A549 cells were cultured in EMEM and F-12K medium, respectively. Both media supplemented with 10% fetal bovine serum (FBS) and 1% of 100 μg/mL penicillin and streptomycin. Cells were grown in a humidified incubator at 37° C. with 5% CO2.

A549 cells (lung cancer) [3] = experiment: AO/PI double staining fluorescence microscopy; format: cell-based, human; conditions: 200x
Protocol: AO/PI double staining was carried out to visualize any morphological changes in the cells upon treatment and also to semi-quantitated viable, apoptotic and necrotic cells, as shown in FIG. 3. […] After 24 hours treatment, blebbing of the cell membrane and dense green nucleus, which indicated nuclear chromatin condensation were noticeable (FIGS. 3(b) and 3(e)). Both early apoptosis features (blebbing and chromatin condensation) and late phases of apoptosis, which specify presence of intense reddish-orange colour due to acridine orange binding to denatured DNA, were observed more apparent at 48 hours of treatment (FIGS. 3(c) and 3(f)) and prominent at 72 hours (FIGS. 3(d) and 3(g)).

A549 (lung cancer) = experiment: Colourimetric assay of caspase 3, 8 and 9 in A549; format: cell-based, human; conditions: A549, treated vs untreated cells, 24-72 hours
Protocol: The colorimetric assay of caspase 3 was performed using fluorometric and colorimetric assay kit (biotium kit). Wehi-3B (blood cancer) or A549 (lung cancer) cells at concentration of 1×10^6 cells/ml were cultured in RPMI 1640 (ATCC, USA) medium supplemented with 10% fetal bovin serum and were seeded into […] culture flask. […] Untreated cells acted as control. The cells were lysed with cold lysis buffer and incubated for 10 minutes on ice. Then, cell lysate was spun down at 10000 rpm for 5 minutes. The supernatant was transferred to new wells and 50 μl assay buffer was added to each samples. Then, 5 μl of enzyme substrate (caspase-3 and 8 substrate) was added to each sample and incubated at 37° c. for 30-60 minutes in a dark place. […]. The samples were read at 495 nm in a microplate reader. Finally, the results were shown as optical density (495 nm, mean SD).

A549 cells (lung cancer) [4] = experiment: Flow cytometric cell cycle phase distribution; format: cell-based, human; conditions: A549, IC50 concentration; for cell cycle arrest: 12-72 hours
Protocol: The Wehi-3B (blood cancer) or A549 (lung cancer) cells (2×10^5 cells/mL) were treated with IC50 concentration of Morinda spp. leaves, or Clinacanthus spp. leaves with or without Zingiber extract and compared with erlotinib. After 12, 24, 48, and 72 hours of incubation, the cells were trypsinized, washed, fixed in 70% ethanol, stained with 1 mg/mL PI and analysed by flow cytometry (BD FACS Canto II, USA).
For flow cytometry analysis fixation of cell population must be performed to keep the integrity and the cell pellets were fixed by adding of 500 μl of 70% chilled ethanol and kept at −20° c. for 5-7 days. Then, the cells were centrifuged at 1000 rpm for 10 minutes and the ethanol was removed. The cells were washed with washing solution containing PBS, EDTA, bovine serum albumin and sodium azide twice, and the pellet cells were resuspended to staining buffer containing 1 ml PBS and 3 μl PI (10 mg/ml) and 10 μl RNase A (50 mg/ml) for 30 minutes on ice dark place. RNase was added in order to permit PI to bind exactly to DNA. The DNA content of cells was analysed with a BD flow cytometer, and the data analysis was performed by using summit V4.3 software.

[5] = test system: A549 cells injected subcutaneously; experiment: In vivo tumor xenograft model; set-up: species or system mice; conditions: erlotinib 50 mg/kg, daily oral gavage 21 days
Protocol: Male BALB/C mice (6 weeks old, weighing 19-20 g) were purchased from Faculty of Veterinary Medicine, University Putra Malaysia. Mice were housed in laminar air-flow cabinets under pathogen-free conditions with a 12-h light/12-h dark schedule and fed with autoclaved standard chow and water ad libitum. A549 cells (2×10^7) resuspended in 100 μL PBS were injected subcutaneously into the backs of mice. When tumor size reached approximately 100 mm^3, after 14 days of implantation, mice were randomly assigned to the following experimental groups and administered daily by oral gavage for 21 days: (a) saline; (b) erlotinib (50 mg/kg); (c) 150 mg/kg and (d) 300 mg/kg of Morinda spp. leaves, Clinacanthus spp. leaves. Mice were sacrificed via intraperitoneal injection of ketamine HCl (100 mg/kg) and xylazine (10 mg/kg). Tumor was collected. Some were kept in liquid nitrogen for gene expression, while others were fixed in 10% formalin and embedded in paraffin for hematoxylin and eosin (H&E) and immunohistochemical (IHC) examination. IHC kits (ChemMate™ DAKO EnVision™ Detection Kit, Peroxidase/DAB, Rabbit/Mouse) were purchased from Dako, Denmark. […]
Data was expressed as mean±standard deviation (mean±SD) of at least three independent experiments; significant differences (p<0.05) using one-way analysis of variance (ANOVA) and Duncan test using statistical analysis IBM SPSS Statistics 21 software.

tumor tissues = experiment: Mouse apoptosis RT-PCR-Array on tumor tissues; format: in vivo, mice
Protocol: Male BALB/C mice (6 weeks old, weighing 19-20 g) were purchased from Faculty of Veterinary Medicine, University Putra Malaysia. Mice were housed in laminar air-flow cabinets under pathogen-free conditions with a 12-h light/12-h dark schedule and fed with autoclaved standard chow and water ad libitum. A549 cells (2×10^7) resuspended in 100 μL PBS were injected subcutaneously into the backs of mice. When tumor size reached approximately 100 mm^3, after 14 days of implantation, mice were randomly assigned to the following experimental groups and administered daily by oral gavage for 21 days: (a) saline; (b) erlotinib (50 mg/kg); (c) 150 mg/kg and (d) 300 mg/kg of Morinda spp. leaves, Clinacanthus spp. leaves. Mice were sacrificed via intraperitoneal injection of ketamine HCl (100 mg/kg) and xylazine (10 mg/kg). Tumor was collected. Some were kept in liquid nitrogen for gene expression, while others were fixed in 10% formalin and embedded in paraffin for hematoxylin and eosin (H&E) and immunohistochemical (IHC) examination. IHC kits (ChemMate™ DAKO EnVision™ Detection Kit, Peroxidase/DAB, Rabbit/Mouse) were purchased from Dako, Denmark. The primary antibody was anti-EGFR antibody ab15669 (Abeam; Cambridge, United Kingdom). This protocol was approved by the Animal Care and Use Committee of University Putra Malaysia (UPM/IACUC/AUP-R016/2013).
RNA was isolated using Trizol (Invitrogen, Carlsbad, Calif.). Custom RT^2 Profiler PCR Array (CAPM11988), RT^2 SYBR Green qPCR Mastermix, RT^2 First Strand Kit and RNase-Free DNase Set were purchased from SuperArray Bioscience Corporation (Frederick, Md.). Quantitative RT-PCR array for differentially expressed genes of interest was performed utilizing RT^2 Profiler PCR Array Data Analysis version 3.5 (SABiosciences; Fredrick, Md., USA), which normalized to Hsp90ab1 (NM_008302) and Gapdh (NM_008084). RT-PCR data is represented as the average relative mRNA gene expression of each experimental group (n=3).

[6] = Erlotinib 50 mg/kg, vs untreated

## CC1=C(/C=C/C(C)=C/C=C/C(C)=C/C(=O)O)C(C)(C)CCC1 [ATRA]
[1]
  apoptosis in spleen tissue (TUNEL): significant (P<0.05) apoptosis

## C#Cc1cccc(Nc2ncnc3cc(OCCOC)c(OCCOC)cc23)c1 [erlotinib]
A549 cells
  IC50: 2.83 µg/mL (≈ 7.19 µM)
A549 cells (lung cancer) [2]; after 24 h
  morphological changes of A549 cells: most of the cells exhibit normal morphology while some cells show cell shrinkage
A549 cells (lung cancer) [2]; after 48 h
  morphological changes of A549 cells: clear apoptogenic morphology such as blebbing and cell shrinkage observed
A549 cells (lung cancer) [2]; after 72 h
  morphological changes of A549 cells: most of the cells were detached with obvious cell shrinkage, and blebbing of the cell membrane
A549 cells (lung cancer) [3]; after 24 h
  AO/PI double-stained morphology: cells exhibit blebbing of the cell membrane and bright green nucleus showing condensation of chromatin
A549 cells (lung cancer) [3]; after 48 h
  AO/PI double-stained morphology: late apoptosis features were seen
A549 cells (lung cancer) [3]; after 72 hours
  AO/PI double-stained morphology: more late apoptosis
A549 (lung cancer)
  activity of caspase 9: remained unchanged
  activity of caspase-3: significantly (P<0.05) increased
  activity of caspase-8: significantly (P<0.05) increased
A549 cells (lung cancer) [4]
  S and G2/M phase cells: concomitant decrease
  cell cycle arrest: induced G0/G1 phase cell cycle arrested
A549 cells (lung cancer) [4]; listed as erlotnib
  cell cycle arrest: induced G0/G1 arrest
[5]
  tumor size: 36.26±37.00 mm^3
Tumor tissues; [6]
  Fold Change Bcl2: −3.57 fold
  Fold Change Birc5: −2.40 fold
  Fold Change Jak2: −1.26 fold
  Fold Change Stat3: 1.06 fold
  Fold Change Stat5a: 1.42 fold
  Fold Change Trp53: −1.10 fold
Tumor tissues; erlotinib positive control
  survivin and Bcl-2 expression: down-regulation
